Test results as given in patent publication US12491180B2, “Application of compound in treating pneumonia” (SHENZHEN OPTIMUM BIOLOGICAL TECHNOLOGY CO., LTD., priority 2019, dated 2025).
In brackets after ≈: the same amount, converted by molar mass.

How the values were obtained:
Test in all cases: MIC, solid dilution method
Format in all cases: cell-based
[1] = system: Klebsiella pneumoniae 12559; details: K.p 12559, CRE clinical isolate, MHA agar, 37° C., 16-20 hours, read-out: MIC
Protocol: (2) Clinical isolated strains: CRE Klebsiella pneumoniae 5846, 11544, 12559, 13249 and CSE Klebsiella pneumoniae 8733, a total of 5 strains;
(§1) The above-mentioned glycerol-preserved strains were taken out from the −80° C. refrigerator, streaked and inoculated on MHA plates, labeled, and cultured overnight in a 37° C. incubator.
(§2) The inoculum was prepared directly from bacterial suspension, and several recovered colonies were picked and directly prepared into a bacterial suspension with a turbidity of No. 0.5 McFarland units in normal saline, and a 10-fold dilution was made during inoculation.
(§3) 6 bottles of MHA culture medium 500 mL/bottle were prepared, and the pH was adjusted to 7.2-7.4, sterilized at 121° C. for 15 min, and the medium was placed in a 55° C. water bath to keep warm.
(§4) Sterile blank petri dishes were taken, and marked with each FL drug/concentration according to 2-fold dilution, and 10 concentrations of each drug starting from 8 μg/mL were tested.
(§5) […]; 20 mL was aspirated and added to a petri dish consistent with the mark, and then 20 mL of MHA culture medium was added to the rest of the drug-containing culture medium, mixed evenly, that is, the 2-fold diluted drug-containing culture medium; 20 mL was aspirated and added to the petri dish consistent with the mark, and then diluted to the 10th concentration and the […] respectively by repeating the above-mentioned steps, and then poured into the petri dish.
(§6) 4 bacterial control petri dishes without drug were prepared at the same time as a control.
(§7) The positioning needle and the inoculation needle were installed according to the order of placement of the colony on the inoculation plate. After inoculation, a bacterial solution circle was formed on the petri dish. After the bacterial solution was absorbed by the agar, the petri dish was placed in an incubator at 37° C. for overnight incubation (16-20 hours), and then taken out.
(§8) The minimum inhibitory concentrations of the compounds against the CRE and CSE strains were determined by the solid dilution method, and the results are shown in Tables 3 and 4.

Escherichia coli 13897 = details: E. coli 13897, CRE clinical isolate, MHA agar, 37° C., 16-20 hours, read-out: MIC
Protocol: as §1, §2, §3, §4, §5, §6, §7, §8

Klebsiella oxytoca 14153 = details: K. ox 14153, CRE clinical isolate, MHA agar, 37° C., 16-20 hours, read-out: MIC
Protocol: as §1, §2, §3, §4, §5, §6, §7, §8

Escherichia coli 11119 = details: E. coli 11119, CRE clinical isolate, MHA agar, 37° C., 16-20 hours, read-out: MIC
Protocol: as §1, §2, §3, §4, §5, §6, §7, §8

Klebsiella oxytoca 12391 = details: K. ox 12391, CRE clinical isolate, MHA agar, 37° C., 16-20 hours, read-out: MIC
Protocol: as §1, §2, §3, §4, §5, §6, §7, §8

Escherichia coli 14828 = details: E. coli 14828, CRE clinical isolate, MHA agar, 37° C., 16-20 hours, read-out: MIC
Protocol: as §1, §2, §3, §4, §5, §6, §7, §8

Klebsiella oxytoca 6777 = details: K. ox 6777, CRE clinical isolate, MHA agar, 37° C., 16-20 hours, read-out: MIC
Protocol: as §1, §2, §3, §4, §5, §6, §7, §8

E. coli 11256 = details: Escherichia coli; E. coli 11256; MHA agar, 37° C., 16-20 hours; read-out: MIC
Protocol: as §1, §2, §3, §4, §5, §6, §7, §8

Klebsiella oxytoca 14151 = details: K. ox 14151, CRE clinical isolate, MHA agar, 37° C., 16-20 hours, read-out: MIC
Protocol: as §1, §2, §3, §4, §5, §6, §7, §8

Row | Structure (SMILES) | MIC [1] [µg/mL] | MIC (Escherichia coli 13897) [µg/mL] | MIC (Klebsiella oxytoca 14153) [µg/mL] | MIC (Escherichia coli 11119) [µg/mL] | MIC (Klebsiella oxytoca 12391) [µg/mL] | MIC (Escherichia coli 14828) [µg/mL] | MIC (Klebsiella oxytoca 6777) [µg/mL] | MIC (E. coli 11256) [µg/mL] | MIC (Klebsiella oxytoca 14151) [µg/mL]
1 | CC1(C)[C@H](NC(=O)/C(=N\O[C@@H](COc2ccc(C(=N)N[C@@H]3CCCNC3)cc2)C(=O)O)c2csc(N)n2)C(=O)N1OS(=O)(=O)O [AIC499, reference compound] | 0.5 (≈ 0.748 µM) | 0.25 (≈ 0.374 µM) | 1 (≈ 1.5 µM) | > 8 | 1 (≈ 1.5 µM) | 0.5 (≈ 0.748 µM) | 0.5 (≈ 0.748 µM) | 0.06 (≈ 0.0897 µM) | 0.5 (≈ 0.748 µM)
2 | CC1(C)[C@H](NC(=O)/C(=N\O[C@@H](COc2ccc3c(c2)CN(C(=N)N(CCCN)CCCN)C3)C(=O)O)c2csc(N)n2)C(=O)N1OS(=O)(=O)O [Compound 32] | 0.125 (≈ 0.169 µM) | 0.06 (≈ 0.081 µM) | 0.125 (≈ 0.169 µM) | 4 (≈ 5.4 µM) | 0.125 (≈ 0.169 µM) | 0.06 (≈ 0.081 µM) | 0.125 (≈ 0.169 µM) | < 0.015 | 0.125 (≈ 0.169 µM)
3 | CC1(C)[C@H](NC(=O)/C(=N\O[C@@H](COc2ccc3c(c2)CN(C(=N)N[C@@H]2CCCNC2)C3)C(=O)O)c2csc(N)n2)C(=O)N1OS(=O)(=O)O [Compound 41] | 0.125 (≈ 0.176 µM) | 0.06 (≈ 0.0845 µM) | 0.25 (≈ 0.352 µM) | 4 (≈ 5.64 µM) | 0.25 (≈ 0.352 µM) | 0.125 (≈ 0.176 µM) | 0.25 (≈ 0.352 µM) | 0.03 (≈ 0.0423 µM) | 0.25 (≈ 0.352 µM)
4 | CC1(C)[C@H](NC(=O)/C(=N\O[C@@H](COc2ccc3c(c2)CN(C(=N)NOCCN)C3)C(=O)O)c2csc(N)n2)C(=O)N1OS(=O)(=O)O [Compound 43] | 0.5 (≈ 0.729 µM) | 0.25 (≈ 0.365 µM) | 1 (≈ 1.46 µM) | > 8 | 1 (≈ 1.46 µM) | 0.5 (≈ 0.729 µM) | 1 (≈ 1.46 µM) | 0.125 (≈ 0.182 µM) | 1 (≈ 1.46 µM)
5 | CC1(C)[C@H](NC(=O)/C(=N\O[C@@H](COc2ccc3c(c2)CN(C(=N)NCCN)C3)C(=O)O)c2csc(N)n2)C(=O)N1OS(=O)(=O)O [Compound 44] | 0.125 (≈ 0.187 µM) | 0.125 (≈ 0.187 µM) | 0.25 (≈ 0.373 µM) | 4 (≈ 5.97 µM) | 0.25 (≈ 0.373 µM) | 0.125 (≈ 0.187 µM) | 0.25 (≈ 0.373 µM) | 0.03 (≈ 0.0448 µM) | 0.25 (≈ 0.373 µM)
6 | CC1(C)[C@H](NC(=O)/C(=N\O[C@@H](COc2ccc3c(c2)CN(/C(=N\[C@@H]2CCCNC2)N[C@@H]2CCCNC2)C3)C(=O)O)c2csc(N)n2)C(=O)N1OS(=O)(=O)O [Compound 46] | 0.25 (≈ 0.315 µM) | 0.125 (≈ 0.158 µM) | 0.25 (≈ 0.315 µM) | 4 (≈ 5.04 µM) | 0.25 (≈ 0.315 µM) | 0.125 (≈ 0.158 µM) | 0.25 (≈ 0.315 µM) | 0.03 (≈ 0.0378 µM) | 0.25 (≈ 0.315 µM)
